Assay results published in publication PMC3639963, “A New Class of Small Molecule Inhibitor of BMP Signaling” (PLoS ONE, 2013).
Where “and” joins values, the source holds several entries; their conditions need not be identical. Equal entries are not always repeated.

Experiments:
Test in all cases: Nanosyn kinase profiling
Assay type in all cases: biochemical
RSK3 = target: T1, RSK3 (Homo sapiens, UniProt Q15349); conditions: read-out: Percentage inhibition; for inhibition at 0.1 µM: 0.1 µM inhibitor; for inhibition at 1 µM: 1 µM inhibitor
T1 construct: purchased Nanosyn (enzymatic panel); SGC in-house recombinant human kinases (DSF panel); Invitrogen (ALK1-6)
Method in brief: (§1)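 Percent inhibition of each kinase was measured with the inhibitor at 0.1 µM and at 1 µM, as part of a 200-kinase human selectivity panel.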

TRKC = target: T2, TRKC (Homo sapiens, UniProt Q16288); conditions: read-out: Percentage inhibition; for inhibition at 0.1 µM: 0.1 µM inhibitor; for inhibition at 1 µM: 1 µM inhibitor
T2 construct: purchased Nanosyn (enzymatic panel); SGC in-house recombinant human kinases (DSF panel); Invitrogen (ALK1-6)
Method in brief: as §1

TYRO3 = target: T3, TYRO3 (Homo sapiens, UniProt Q06418); conditions: read-out: Percentage inhibition; for inhibition at 0.1 µM: 0.1 µM inhibitor; for inhibition at 1 µM: 1 µM inhibitor
T3 construct: purchased Nanosyn (enzymatic panel); SGC in-house recombinant human kinases (DSF panel); Invitrogen (ALK1-6)
T3 sequence (Q06418 41-890): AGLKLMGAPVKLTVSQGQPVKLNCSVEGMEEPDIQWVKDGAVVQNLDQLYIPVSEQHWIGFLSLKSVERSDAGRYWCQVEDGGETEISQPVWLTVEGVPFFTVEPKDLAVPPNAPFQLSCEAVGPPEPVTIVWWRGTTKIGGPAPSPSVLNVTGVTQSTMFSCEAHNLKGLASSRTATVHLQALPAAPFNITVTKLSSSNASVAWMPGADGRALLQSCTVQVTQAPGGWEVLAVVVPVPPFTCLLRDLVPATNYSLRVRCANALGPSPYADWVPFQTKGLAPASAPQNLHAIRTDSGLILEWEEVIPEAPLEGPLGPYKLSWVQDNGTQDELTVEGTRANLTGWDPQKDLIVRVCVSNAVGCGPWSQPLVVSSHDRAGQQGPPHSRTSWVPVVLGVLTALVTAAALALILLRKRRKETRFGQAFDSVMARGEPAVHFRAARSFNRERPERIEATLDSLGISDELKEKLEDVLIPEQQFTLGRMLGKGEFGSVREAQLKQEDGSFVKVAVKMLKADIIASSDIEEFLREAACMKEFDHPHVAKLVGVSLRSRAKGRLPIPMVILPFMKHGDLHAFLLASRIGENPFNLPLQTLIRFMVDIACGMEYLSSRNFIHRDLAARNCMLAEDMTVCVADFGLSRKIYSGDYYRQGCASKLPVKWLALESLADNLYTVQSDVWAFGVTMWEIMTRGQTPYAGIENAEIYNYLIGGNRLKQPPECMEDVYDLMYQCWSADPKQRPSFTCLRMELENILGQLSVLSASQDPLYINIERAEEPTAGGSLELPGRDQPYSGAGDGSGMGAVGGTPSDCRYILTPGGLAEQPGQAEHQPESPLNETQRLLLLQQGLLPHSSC
Method in brief: as §1

CDK2/cycE = target: T4, CDK2/cycE (Homo sapiens, UniProt P24941); conditions: read-out: Percentage inhibition; for inhibition at 0.1 µM: 0.1 µM inhibitor; for inhibition at 1 µM: 1 µM inhibitor
T4 construct: purchased Nanosyn (enzymatic panel); SGC in-house recombinant human kinases (DSF panel); Invitrogen (ALK1-6)
Method in brief: as §1

MARK1 = target: T5, MARK1 (Homo sapiens, UniProt Q9P0L2); conditions: read-out: Percentage inhibition; for inhibition at 0.1 µM: 0.1 µM inhibitor; for inhibition at 1 µM: 1 µM inhibitor
T5 construct: purchased Nanosyn (enzymatic panel); SGC in-house recombinant human kinases (DSF panel); Invitrogen (ALK1-6)
Method in brief: as §1

JAK1 = target: T6, JAK1 (Homo sapiens, UniProt P23458); conditions: read-out: Percentage inhibition; for inhibition at 0.1 µM: 0.1 µM inhibitor; for inhibition at 1 µM: 1 µM inhibitor
T6 construct: purchased Nanosyn (enzymatic panel); SGC in-house recombinant human kinases (DSF panel); Invitrogen (ALK1-6)
Method in brief: as §1

TEC = target: T7, TEC (Homo sapiens, UniProt P42680); conditions: read-out: Percentage inhibition; for inhibition at 0.1 µM: 0.1 µM inhibitor; for inhibition at 1 µM: 1 µM inhibitor
T7 construct: purchased Nanosyn (enzymatic panel); SGC in-house recombinant human kinases (DSF panel); Invitrogen (ALK1-6)
T7 sequence (P42680 1-631): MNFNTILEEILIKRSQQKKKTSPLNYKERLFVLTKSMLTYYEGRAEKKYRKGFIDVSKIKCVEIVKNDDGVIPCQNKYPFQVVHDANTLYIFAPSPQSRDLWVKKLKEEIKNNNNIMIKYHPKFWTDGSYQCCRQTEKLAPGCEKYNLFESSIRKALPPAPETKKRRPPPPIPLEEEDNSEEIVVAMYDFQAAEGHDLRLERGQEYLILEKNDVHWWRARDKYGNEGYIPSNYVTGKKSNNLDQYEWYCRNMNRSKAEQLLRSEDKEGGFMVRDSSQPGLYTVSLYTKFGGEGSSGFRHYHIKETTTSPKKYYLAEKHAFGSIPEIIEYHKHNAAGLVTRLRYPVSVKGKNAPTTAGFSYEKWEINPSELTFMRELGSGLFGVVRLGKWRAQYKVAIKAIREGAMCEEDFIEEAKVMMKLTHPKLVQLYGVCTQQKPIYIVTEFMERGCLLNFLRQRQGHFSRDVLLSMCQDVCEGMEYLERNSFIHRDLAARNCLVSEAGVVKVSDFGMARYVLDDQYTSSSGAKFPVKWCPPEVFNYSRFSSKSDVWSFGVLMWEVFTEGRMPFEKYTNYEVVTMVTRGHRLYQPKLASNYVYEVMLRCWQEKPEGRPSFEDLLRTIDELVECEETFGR
Method in brief: as §1

TYK2 = target: T8, TYK2 (Homo sapiens, UniProt P29597); conditions: read-out: Percentage inhibition; for inhibition at 0.1 µM: 0.1 µM inhibitor; for inhibition at 1 µM: 1 µM inhibitor
T8 construct: purchased Nanosyn (enzymatic panel); SGC in-house recombinant human kinases (DSF panel); Invitrogen (ALK1-6)
Method in brief: as §1

PI3-K-δ = target: T9, PI3-K-δ (Homo sapiens, UniProt O00329); conditions: read-out: Percentage inhibition; for inhibition at 0.1 µM: 0.1 µM inhibitor; for inhibition at 1 µM: 1 µM inhibitor
T9 construct: purchased Nanosyn (enzymatic panel); SGC in-house recombinant human kinases (DSF panel); Invitrogen (ALK1-6)
Method in brief: as §1

ABL1 = target: T10, ABL1 (Homo sapiens, UniProt P00519); conditions: for Percentage inhibition: 0.1 µM; for inhibition at 1 µM: 1 µM inhibitor
T10 construct: purchased Nanosyn (enzymatic panel); SGC in-house recombinant human kinases (DSF panel); Invitrogen (ALK1-6)
Method in brief: as §1

[1] = read-out: Percentage inhibition

T5 sequence (Q9P0L2 whole entry): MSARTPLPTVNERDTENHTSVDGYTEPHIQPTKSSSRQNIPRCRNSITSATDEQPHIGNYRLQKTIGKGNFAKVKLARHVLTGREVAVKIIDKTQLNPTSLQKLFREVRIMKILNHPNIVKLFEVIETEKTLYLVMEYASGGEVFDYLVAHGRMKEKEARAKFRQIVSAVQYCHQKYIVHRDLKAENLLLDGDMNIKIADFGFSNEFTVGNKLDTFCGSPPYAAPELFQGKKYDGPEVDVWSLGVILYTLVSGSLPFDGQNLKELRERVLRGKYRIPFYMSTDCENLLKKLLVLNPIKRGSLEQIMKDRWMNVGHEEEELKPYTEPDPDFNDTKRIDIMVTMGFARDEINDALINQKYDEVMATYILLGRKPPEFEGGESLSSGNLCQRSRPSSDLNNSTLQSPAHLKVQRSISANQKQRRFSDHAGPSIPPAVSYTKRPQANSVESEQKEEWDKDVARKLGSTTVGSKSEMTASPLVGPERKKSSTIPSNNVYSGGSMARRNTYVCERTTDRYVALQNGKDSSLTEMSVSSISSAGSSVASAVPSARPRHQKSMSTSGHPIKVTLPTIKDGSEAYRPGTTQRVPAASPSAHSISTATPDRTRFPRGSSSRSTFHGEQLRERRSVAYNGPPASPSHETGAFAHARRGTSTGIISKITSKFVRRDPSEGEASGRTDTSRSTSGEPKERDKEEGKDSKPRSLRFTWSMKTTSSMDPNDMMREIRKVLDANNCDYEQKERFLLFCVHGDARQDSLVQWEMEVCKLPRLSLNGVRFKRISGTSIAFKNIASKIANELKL
T8 sequence (P29597 whole entry): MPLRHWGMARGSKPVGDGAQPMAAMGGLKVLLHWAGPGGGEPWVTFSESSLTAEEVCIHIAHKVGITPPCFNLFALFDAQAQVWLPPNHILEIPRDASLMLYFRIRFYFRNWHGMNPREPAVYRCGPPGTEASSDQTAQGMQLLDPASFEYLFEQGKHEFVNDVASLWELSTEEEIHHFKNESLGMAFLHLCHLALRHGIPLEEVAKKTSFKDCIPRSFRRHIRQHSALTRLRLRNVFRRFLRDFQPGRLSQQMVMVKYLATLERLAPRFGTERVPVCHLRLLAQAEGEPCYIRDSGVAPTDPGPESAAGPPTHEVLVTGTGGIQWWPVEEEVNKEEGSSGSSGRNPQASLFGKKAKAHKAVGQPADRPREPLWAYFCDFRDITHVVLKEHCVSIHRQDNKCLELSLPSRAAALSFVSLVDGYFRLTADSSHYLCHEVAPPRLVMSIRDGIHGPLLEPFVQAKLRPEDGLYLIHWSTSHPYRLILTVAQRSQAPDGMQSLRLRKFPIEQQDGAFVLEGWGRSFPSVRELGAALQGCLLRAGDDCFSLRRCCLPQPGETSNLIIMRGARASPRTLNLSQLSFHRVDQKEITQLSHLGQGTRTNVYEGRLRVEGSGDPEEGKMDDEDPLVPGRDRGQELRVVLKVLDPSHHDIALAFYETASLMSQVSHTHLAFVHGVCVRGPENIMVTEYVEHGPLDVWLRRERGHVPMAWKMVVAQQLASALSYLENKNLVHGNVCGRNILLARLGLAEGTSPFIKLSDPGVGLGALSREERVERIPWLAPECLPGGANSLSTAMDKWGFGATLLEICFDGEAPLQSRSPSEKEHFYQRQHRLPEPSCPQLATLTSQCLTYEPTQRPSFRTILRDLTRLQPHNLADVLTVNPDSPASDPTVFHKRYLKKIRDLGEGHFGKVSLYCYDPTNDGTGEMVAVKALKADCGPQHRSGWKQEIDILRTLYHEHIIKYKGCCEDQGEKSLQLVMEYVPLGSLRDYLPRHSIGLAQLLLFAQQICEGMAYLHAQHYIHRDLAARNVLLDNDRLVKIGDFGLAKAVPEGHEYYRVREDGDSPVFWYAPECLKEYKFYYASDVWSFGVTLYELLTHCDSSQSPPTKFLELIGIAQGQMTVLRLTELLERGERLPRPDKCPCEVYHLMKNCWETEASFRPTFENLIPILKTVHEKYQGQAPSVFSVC
T10 sequence (P00519 whole entry): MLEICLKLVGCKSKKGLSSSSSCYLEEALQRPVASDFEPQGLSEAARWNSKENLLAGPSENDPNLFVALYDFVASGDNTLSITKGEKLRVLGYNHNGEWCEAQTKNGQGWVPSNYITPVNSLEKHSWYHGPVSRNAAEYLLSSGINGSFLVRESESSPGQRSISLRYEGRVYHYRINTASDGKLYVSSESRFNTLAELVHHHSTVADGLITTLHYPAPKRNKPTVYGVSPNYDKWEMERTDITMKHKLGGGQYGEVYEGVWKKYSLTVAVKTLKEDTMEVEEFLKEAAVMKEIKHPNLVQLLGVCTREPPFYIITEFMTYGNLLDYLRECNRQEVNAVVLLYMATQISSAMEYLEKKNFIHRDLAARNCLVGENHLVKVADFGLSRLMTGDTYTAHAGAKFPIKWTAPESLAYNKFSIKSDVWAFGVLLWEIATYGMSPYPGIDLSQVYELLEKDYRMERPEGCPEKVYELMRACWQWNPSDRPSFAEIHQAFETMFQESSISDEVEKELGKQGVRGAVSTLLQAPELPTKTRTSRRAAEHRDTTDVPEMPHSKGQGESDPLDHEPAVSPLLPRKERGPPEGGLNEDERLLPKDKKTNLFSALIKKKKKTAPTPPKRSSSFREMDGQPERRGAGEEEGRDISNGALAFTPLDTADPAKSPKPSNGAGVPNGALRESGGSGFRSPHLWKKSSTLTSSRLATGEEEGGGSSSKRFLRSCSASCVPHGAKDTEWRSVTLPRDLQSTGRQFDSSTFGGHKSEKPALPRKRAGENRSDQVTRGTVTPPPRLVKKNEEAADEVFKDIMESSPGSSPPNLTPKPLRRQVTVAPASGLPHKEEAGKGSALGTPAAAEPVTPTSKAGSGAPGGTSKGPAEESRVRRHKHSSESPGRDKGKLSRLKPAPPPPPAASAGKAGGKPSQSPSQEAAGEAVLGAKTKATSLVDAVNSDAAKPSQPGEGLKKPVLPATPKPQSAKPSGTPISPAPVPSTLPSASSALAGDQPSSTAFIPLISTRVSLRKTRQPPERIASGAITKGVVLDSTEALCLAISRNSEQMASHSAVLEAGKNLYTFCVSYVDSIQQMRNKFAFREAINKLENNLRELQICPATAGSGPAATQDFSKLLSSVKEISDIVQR
T1 sequence (Q15349 whole entry): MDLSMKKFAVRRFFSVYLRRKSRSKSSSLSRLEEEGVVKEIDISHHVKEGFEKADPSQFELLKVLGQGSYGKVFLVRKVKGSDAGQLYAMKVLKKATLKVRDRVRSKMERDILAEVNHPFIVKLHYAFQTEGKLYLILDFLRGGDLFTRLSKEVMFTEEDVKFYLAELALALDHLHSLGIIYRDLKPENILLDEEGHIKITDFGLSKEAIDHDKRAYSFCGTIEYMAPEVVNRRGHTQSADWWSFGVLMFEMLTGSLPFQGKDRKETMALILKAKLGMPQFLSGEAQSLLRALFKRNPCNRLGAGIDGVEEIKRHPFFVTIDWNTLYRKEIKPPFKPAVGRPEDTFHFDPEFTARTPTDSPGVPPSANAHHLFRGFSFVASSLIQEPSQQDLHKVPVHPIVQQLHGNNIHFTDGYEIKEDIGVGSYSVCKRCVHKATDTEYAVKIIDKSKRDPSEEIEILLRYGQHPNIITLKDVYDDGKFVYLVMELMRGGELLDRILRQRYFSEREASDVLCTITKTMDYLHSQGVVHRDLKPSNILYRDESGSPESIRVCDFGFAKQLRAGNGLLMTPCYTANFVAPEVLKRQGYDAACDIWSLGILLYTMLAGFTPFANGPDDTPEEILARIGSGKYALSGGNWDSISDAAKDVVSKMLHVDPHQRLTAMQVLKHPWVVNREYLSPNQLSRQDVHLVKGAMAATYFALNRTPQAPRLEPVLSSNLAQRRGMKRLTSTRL
T6 sequence (P23458 whole entry): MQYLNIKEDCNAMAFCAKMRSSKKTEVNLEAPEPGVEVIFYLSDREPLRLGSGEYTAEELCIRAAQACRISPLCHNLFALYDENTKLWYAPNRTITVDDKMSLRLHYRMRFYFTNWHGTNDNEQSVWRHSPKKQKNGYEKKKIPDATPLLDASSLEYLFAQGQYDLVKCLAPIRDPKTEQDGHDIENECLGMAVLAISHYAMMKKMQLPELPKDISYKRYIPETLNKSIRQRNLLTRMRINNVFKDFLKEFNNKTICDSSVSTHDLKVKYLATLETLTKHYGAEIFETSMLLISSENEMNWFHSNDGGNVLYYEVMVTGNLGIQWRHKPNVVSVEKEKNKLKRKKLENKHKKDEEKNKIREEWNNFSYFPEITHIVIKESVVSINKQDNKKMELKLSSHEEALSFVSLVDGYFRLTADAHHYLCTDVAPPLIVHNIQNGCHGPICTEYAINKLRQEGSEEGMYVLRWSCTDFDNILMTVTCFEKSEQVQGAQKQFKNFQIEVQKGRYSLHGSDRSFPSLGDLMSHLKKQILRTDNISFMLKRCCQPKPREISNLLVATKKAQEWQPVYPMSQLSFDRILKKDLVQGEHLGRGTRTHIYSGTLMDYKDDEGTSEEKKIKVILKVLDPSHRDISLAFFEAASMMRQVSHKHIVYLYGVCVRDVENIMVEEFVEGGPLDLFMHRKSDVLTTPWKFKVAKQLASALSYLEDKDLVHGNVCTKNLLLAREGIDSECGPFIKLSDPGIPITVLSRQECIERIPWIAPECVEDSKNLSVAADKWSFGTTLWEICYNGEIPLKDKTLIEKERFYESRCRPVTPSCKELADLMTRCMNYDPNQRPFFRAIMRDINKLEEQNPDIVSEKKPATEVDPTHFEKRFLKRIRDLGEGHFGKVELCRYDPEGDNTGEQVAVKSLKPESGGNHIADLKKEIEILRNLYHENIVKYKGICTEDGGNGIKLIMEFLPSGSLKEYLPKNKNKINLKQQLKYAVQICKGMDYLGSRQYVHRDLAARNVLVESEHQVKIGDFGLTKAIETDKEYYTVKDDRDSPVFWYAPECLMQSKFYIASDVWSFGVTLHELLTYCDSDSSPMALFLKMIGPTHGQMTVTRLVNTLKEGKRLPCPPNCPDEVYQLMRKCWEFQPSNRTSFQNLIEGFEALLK

| SMILES | inhibition at 0.1 µM (RSK3) | inhibition at 1 µM (RSK3) | inhibition at 0.1 µM (TRKC) | inhibition at 1 µM (TRKC) | inhibition at 0.1 µM (TYRO3) | inhibition at 1 µM (TYRO3) | inhibition at 0.1 µM (CDK2/cycE) | inhibition at 1 µM (CDK2/cycE) | inhibition at 0.1 µM (MARK1) | inhibition at 1 µM (MARK1) | inhibition at 0.1 µM (JAK1) | inhibition at 1 µM (JAK1) | inhibition at 0.1 µM (TEC) | inhibition at 1 µM (TEC) | inhibition at 0.1 µM (TYK2) | inhibition at 1 µM (TYK2) | inhibition at 0.1 µM (PI3-K-δ) | inhibition at 1 µM (PI3-K-δ) | Percentage inhibition (ABL1; 0.1 µM inhibitor) | inhibition at 1 µM (ABL1; [1]) | other results |
| --- | --- | --- | --- | --- | --- | --- | --- | --- | --- | --- | --- | --- | --- | --- | --- | --- | --- | --- | --- | --- | --- |
| COc1cc(-c2cc(-c3cccc(O)c3)cnc2N)cc(OC)c1OC [K02288, 3-[6-amino-5-(3,4,5-trimethoxy-phenyl)-pyridin-3-yl]-phenol] | 0.6% | 1.1% | 2.7% | 2.4% | 1.8% | 19% | 0.2% | 1.5% | 1.3% | 4.5% | 0% | 0.4% | 0.3% | 14% | 0% | 1.8% | 0.8% | 2.5% | 79% and > 50% | 89% | – |
| c1ccc2c(-c3cnn4cc(-c5ccc(N6CCNCC6)cc5)cnc34)ccnc2c1 [LDN-193189] | 1.5% | 5.6% | 1.6% | 3.9% | 13% | 58% | 2.8% | 5.3% | 13% | 62% | 2.7% | 4.2% | 1.8% | 5.5% | -1% | -2% | -1% | 10% | > 50% | 84% | inhibition at 0.1 µM (ABL1; 0.1 µM inhibitor, read-out: Percentage inhibition): 62% |
